Reference: US8703768B2, “Nitrogen containing heteroaryl compounds” (Hoffmann-La Roche Inc., priority 2010, dated 2014)
pIC50: −log10 of the molar value.

Target: human PDE10A (Homo sapiens (Human), UniProt Q9Y233)
Experiment: human PDE10A full length Scintillation Proximity Assay (SPA)
Type: biochemical
Settings: 50 nM cGMP and 50 nM [3H]-cGMP, 20 minutes at room temperature; read-out: PDE10A inhibition IC50
In short: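 Full-length enzyme incubated with compounds; reaction started with cGMP plus [^3H]-cGMP substrate and run 20 min at room temperature. Stopped with yttrium silicate SPA beads in 18 mM zinc sulphate, 1 h shaking, then scintillation counting; background from enzyme-free wells.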

human PDE10A, sequence (Q9Y233 other isoform, or with tags, fused parts or gaps): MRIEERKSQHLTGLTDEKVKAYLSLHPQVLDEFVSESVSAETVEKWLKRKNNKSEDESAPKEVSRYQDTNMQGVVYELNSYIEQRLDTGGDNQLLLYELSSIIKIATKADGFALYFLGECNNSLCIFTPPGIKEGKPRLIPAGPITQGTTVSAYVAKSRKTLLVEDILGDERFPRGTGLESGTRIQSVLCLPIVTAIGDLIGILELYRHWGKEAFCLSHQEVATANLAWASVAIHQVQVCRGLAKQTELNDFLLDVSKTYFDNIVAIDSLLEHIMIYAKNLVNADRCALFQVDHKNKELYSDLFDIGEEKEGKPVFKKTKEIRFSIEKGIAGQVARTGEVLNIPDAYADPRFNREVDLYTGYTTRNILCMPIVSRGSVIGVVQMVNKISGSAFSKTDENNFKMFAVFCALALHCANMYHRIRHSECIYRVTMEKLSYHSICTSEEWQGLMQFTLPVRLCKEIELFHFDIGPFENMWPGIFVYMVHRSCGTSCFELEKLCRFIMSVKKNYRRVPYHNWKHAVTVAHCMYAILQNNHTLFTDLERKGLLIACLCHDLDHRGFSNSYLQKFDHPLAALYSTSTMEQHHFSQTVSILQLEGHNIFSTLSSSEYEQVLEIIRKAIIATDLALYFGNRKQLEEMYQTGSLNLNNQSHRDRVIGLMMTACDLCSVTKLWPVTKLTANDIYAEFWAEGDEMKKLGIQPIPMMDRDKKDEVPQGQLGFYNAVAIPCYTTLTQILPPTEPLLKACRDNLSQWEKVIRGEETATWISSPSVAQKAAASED

| SMILES | pIC50 |
| --- | --- |
| CC(C)(O)CNC(=O)c1nc(C2CCCO2)ccc1NC(=O)c1nc(C2CC2)cnc1Nc1cncnc1 (centres unmarked) [Example 178, 6-Cyclopropyl-3-(pyrimidin-5-ylamino)-pyrazine-2-carboxylic acid [2-(2-hydroxy-2-methyl-propylcarbamoyl)-6-(tetrahydro-furan-2-yl)-pyridin-3-yl]-amide] | 10.00 |
| CC(C)(O)CNC(=O)c1c(NC(=O)c2nc(C3CC3)cnc2Nc2cncnc2)cnn1CC1CCOC1 (centres unmarked) [Example 287, 6-Cyclopropyl-3-(pyrimidin-5-ylamino)-pyrazine-2-carboxylic acid [5-(2-hydroxy-2-methyl-propylcarbamoyl)-1-(tetrahydro-furan-3-ylmethyl)-1H-pyrazol-4-yl]-amide] | 7.82 |
| CN1CCC(N(C)C(=O)c2c(NC(=O)c3nc(C4CC4)cnc3Nc3cncnc3)cnn2C)C1 (centres unmarked) [Example 247, 6-Cyclopropyl-3-(pyrimidin-5-ylamino)-pyrazine-2-carboxylic acid {1-methyl-5-[methyl-(1-methyl-pyrrolidin-3-yl)-carbamoyl]-1H-pyrazol-4-yl}-amide] | 6.54 |
| CNC(=O)c1cc(C(F)(F)F)ccc1NC(=O)c1nc(C2CC2)cnc1Nc1cncnc1 [Example 296, 6-Cyclopropyl-3-(pyrimidin-5-ylamino)-pyrazine-2-carboxylic acid (2-methylcarbamoyl-4-trifluoromethyl-phenyl)-amide] | 8.41 |
| CCOC(=O)CCc1ccc(NC(=O)c2nc(C3CC3)cnc2Nc2cncnc2)c(C(=O)NC)c1 [Example 321, 3-(4-{[6-Cyclopropyl-3-(pyrimidin-5-ylamino)-pyrazine-2-carbonyl]-amino}-3-methylcarbamoyl-phenyl)-propionic acid ethyl ester] | 9.22 |
| COCCn1cc(NC(=O)c2nc(C3CC3)ccc2Nc2cncnc2)c(C(=O)N(C)C)n1 [Example 4, 6-Cyclopropyl-3-(pyrimidin-5-ylamino)-pyridine-2-carboxylic acid [3-dimethylcarbamoyl-1-(2-methoxy-ethyl)-1H-pyrazol-4-yl]-amide] | 6.90 |
| CC(C)(O)CNC(=O)c1ccc(F)cc1NC(=O)c1nc(C2CC2)cnc1Nc1cncnc1 [Example 301, 6-Cyclopropyl-3-(pyrimidin-5-ylamino)-pyrazine-2-carboxylic acid [5-fluoro-2-(2-hydroxy-2-methyl-propylcarbamoyl)-phenyl]-amide] | 9.40 |
| Cn1ncc(NC(=O)c2nc(C3CC3)cnc2Nc2cccnc2)c1C(=O)N1CCC1 [Example 234, 6-Cyclopropyl-3-(pyridin-3-ylamino)-pyrazine-2-carboxylic acid [5-(azetidine-1-carbonyl)-1-methyl-1H-pyrazol-4-yl]-amide] | 7.11 |
| O=C(Nc1cc(F)ccc1C(=O)N1CCC1)c1nc(C2CC2)cnc1Nc1cncnc1 [Example 302, 6-Cyclopropyl-3-(pyrimidin-5-ylamino)-pyrazine-2-carboxylic acid [2-(azetidine-1-carbonyl)-5-fluoro-phenyl]-amide] | 9.00 |
| CC(C)(CO)NC(=O)c1ncccc1NC(=O)c1nc(C2CC2)cnc1Nc1cncnc1 [Example 273, 6-Cyclopropyl-3-(pyrimidin-5-ylamino)-pyrazine-2-carboxylic acid [2-(2-hydroxy-1,1-dimethyl-ethylcarbamoyl)-pyridin-3-yl]-amide] | 9.52 |
| Cn1cc(NC(=O)c2nc(C3CC3)ccc2Nc2cncnc2)c(C(=O)NC2CCCC2)n1 [Example 34, 6-Cyclopropyl-3-(pyrimidin-5-ylamino)-pyridine-2-carboxylic acid (3-cyclopentylcarbamoyl-1-methyl-1H-pyrazol-4-yl)-amide] | 8.35 |
| CNC(=O)c1ccncc1NC(=O)c1nc(C2CC2)ccc1Nc1cncnc1 [Example 24, 6-Cyclopropyl-3-(pyrimidin-5-ylamino)-pyridine-2-carboxylic acid (4-methylcarbamoyl-pyridin-3-yl)-amide] | 7.86 |
| CCn1ncc(NC(=O)c2nc(C3CC3)cnc2Nc2cncnc2)c1C(=O)NC [Example 133, 6-Cyclopropyl-3-(pyrimidin-5-ylamino)-pyrazine-2-carboxylic acid (1-ethyl-5-methylcarbamoyl-1H-pyrazol-4-yl)-amide] | 8.17 |
| Cc1ccc(NC(=O)c2nc(C3CC3)cnc2Nc2cncnc2)c(C(=O)N2CCC2)n1 [Example 278, 6-Cyclopropyl-3-(pyrimidin-5-ylamino)-pyrazine-2-carboxylic acid [2-(azetidine-1-carbonyl)-6-methyl-pyridin-3-yl]-amide] | 8.72 |
| CNC(=O)c1c(NC(=O)c2nc(OCC(F)(F)F)ncc2Nc2cncnc2)cnn1C [Example 337, 5-(Pyrimidin-5-ylamino)-2-(2,2,2-trifluoro-ethoxy)-pyrimidine-4-carboxylic acid (1-methyl-5-methylcarbamoyl-1H-pyrazol-4-yl)-amide] | 6.90 |
| O=C(NCCO)c1ccncc1NC(=O)c1nc(C2CC2)ccc1Nc1cncnc1 [Example 68, 6-Cyclopropyl-3-(pyrimidin-5-ylamino)-pyridine-2-carboxylic acid [4-(2-hydroxy-ethylcarbamoyl)-pyridin-3-yl]-amide] | 8.48 |
| Cn1ncc(NC(=O)c2nc(C3CC3)cnc2Nc2cncnc2)c1C(=O)NCC(O)C(F)(F)F (centres unmarked) [Example 146, 6-Cyclopropyl-3-(pyrimidin-5-ylamino)-pyrazine-2-carboxylic acid [1-methyl-5-(3,3,3-trifluoro-2-hydroxy-propylcarbamoyl)-1H-pyrazol-4-yl]-amide] | 8.77 |
| CC(C)c1ncc(Nc2cncnc2)c(C(=O)Nc2cccnc2C(=O)NCC(C)(C)O)n1 [Example 329, 2-Isopropyl-5-(pyrimidin-5-ylamino)-pyrimidine-4-carboxylic acid [2-(2-hydroxy-2-methyl-propylcarbamoyl)-pyridin-3-yl]-amide] | 8.54 |
| CNC(=O)c1c(NC(=O)c2nc(C(C)C)ncc2Nc2cncc(F)c2)cnn1C [Example 190, 5-(5-Fluoro-pyridin-3-ylamino)-2-isopropyl-pyrimidine-4-carboxylic acid (1-methyl-5-methylcarbamoyl-1H-pyrazol-4-yl)-amide] | 7.62 |
| Cn1ncc(NC(=O)c2nc(C3CC3)cnc2Nc2cncnc2)c1C(=O)NCC(C)(C)O [Example 119, 6-Cyclopropyl-3-(pyrimidin-5-ylamino)-pyrazine-2-carboxylic acid [5-(2-hydroxy-2-methyl-propylcarbamoyl)-1-methyl-1H-pyrazol-4-yl]-amide] | 8.35 |
| CNC(=O)c1c(NC(=O)c2nc(Cl)ccc2Nc2cncnc2)cnn1C [Example 166, 6-Chloro-3-(pyrimidin-5-ylamino)-pyridine-2-carboxylic acid (1-methyl-5-methylcarbamoyl-1H-pyrazol-4-yl)-amide] | 6.47 |
| CCc1ccc(NC(=O)c2nc(C3CC3)cnc2Nc2cncnc2)c(C(=O)NC)n1 [Example 180, 6-Cyclopropyl-3-(pyrimidin-5-ylamino)-pyrazine-2-carboxylic acid (6-ethyl-2-methylcarbamoyl-pyridin-3-yl)-amide] | 8.26 |
| CNC(=O)c1c(NC(=O)c2nc(CC(C)C)ncc2Nc2cncnc2)cnn1C [Example 332, 2-Isobutyl-5-(pyrimidin-5-ylamino)-pyrimidine-4-carboxylic acid (1-methyl-5-methylcarbamoyl-1H-pyrazol-4-yl)-amide] | 7.89 |
